Data from patent US8680129B2, “Compounds, composition, methods, targets for cancer therapy” (priority 2008, dated 2014).
Where two headings read alike, the source gives them in different places. Values belong to the compound of their own block, whether it stands above or below them.

Tests used:
[1] = tested on: HT1080 cells; test: Other tetrazolium salts as substitutes of WST-1r with apigenin, cell viability; type: cell-based, human; conditions: 1 mM WST-1, 0.4 mM WST-3, 0.5 mM WST-4, 0.5 mM WST-5, 0.12 mM mPMS; apigenin 10, 30 or 100 μM; 4 hours then 24 hours
Procedure: (§1) Method: HT1080 and UM-SCC6 cells were treated with 1 mM WST-1, 0.4 mM WST-3, 0.5 mM WST-4, 0.5 mM WST-5 or 0.12 mM mPMS alone or each of the WST-3, WST-4, and WST-5 at the same concentration in combination with 0.12 mM mPMS (0.4 mM WST-3+0.12 mM mPMS, 0.5 mM WST-4+0.12 mM mPMS, 0.5 mM WST-5+0.12 mM mPMS) plus 10, 30 or 100 μM apigenin for 4 hours and, then changed to normal growth medium for another 24 hours. Cell viability was measured with CCK8 Kit.

[2] = tested on: UM-SCC6 cells; test: as above; type: cell-based, human; conditions: 1 mM WST-1, 0.4 mM WST-3, 0.5 mM WST-4, 0.5 mM WST-5, 0.12 mM mPMS; apigenin 10, 30 or 100 μM; 4 hours then 24 hours
Procedure: as §1

[3] = tested on: SK-Mel-5 cells; test: WST-3 with apigenin, cell viability by CCK8; type: cell-based, human; conditions: for cell death, single agent: apigenin or WST-3 alone
Procedure: (§2) Method: UM-SCC6, HT1080, Cal27, SK-Mel-5, and HEKa cells were treated with 50 or 100 μM WST-3 or 10 or 30 μM apigenin alone, or combination of WST-3 and apigenin at different concentrations for 4 hours with untreated cells as control, then, changed to normal growth medium and remained culture in this medium for another 24 hours. After the 24 hours culture, cell viabilities were measured with CCK8 Kit. Data were normalized to % of untreated control cells.

[4] = tested on: non cancer HEKa cells; test: WST-3 with apigenin, cell viability by CCK8; type: cell-based, human; conditions: for cell death, single agent: apigenin or WST-3 alone
Procedure: as §2

[5] = tested on: UM-SCC6, HT1080, Cal27, SK-Mel-5, and HEKa cells; test: WST-3 or apigenin alone, cell viability, all tested lines; type: cell-based, human; conditions: 50 µM WST-3 or 30 μM apigenin alone, 4 hours then 24 hours
Procedure: as §2

[6] = tested on: UM-SCC-6 cells; test: pUC19 DNA transfection plus chemotherapeutic drug, cell viability; type: cell-based, human; conditions: for IC50 of Cis-Platinum: UM-SCC-6 cells; for IC50: Homo sapiens, read-out: IC50 of 5-FU
Procedure: UM-SCC-6 cells were transfected with pUC19 DNA, pcDNA3, pUC19+pcDNA3, IKK1-KA+pUC19, IKK2-KA+pUC19, and IKK1-KA+IKK2-KA+pUC19, IKK1-KA+pcDNA3, IKK2-KA+pcDNA3, or IKK1-KA+IKK2-KA+pcDNA3, for 48 hours and, treated with variable doses of 5-FU (FIG. 6A) or Cis-Platinum (FIG. 6B) for […] respectively. Cell viabilities were measured in 72 and 96 hours respectively after drug treatment.

[7] = tested on: HT1080 cells; test: as above; type: cell-based, human; conditions: for IC50 of Cis-Platinum: HT1080 cells
Procedure: HT1080 Cells were transfected with pUC19 DNA, pcDNA3, pUC19+pcDNA3, IKK1-KA+pUC19, IKK2-KA+pUC19, and IKK1-KA+IKK2-KA+pUC19, IKK1-KA+pcDNA3, IKK2-KA+pcDNA3, or IKK1-KA+IKK2-KA+pcDNA3, for 48 hours before the treatment of chemotherapy drugs at various doses. Cell viability was measured in 72 and 96 hours after drug treatment.
Drug treatment: Cis-Platinum 30 ng/ml-3 μg/ml (FIG. 6D), Paclitaxel 1 nM-10 μM (FIG. 6C), 5-FU 50 nM-500 μM (data not shown), Doxorubicin 30 nM-3.3 μM (data not shown).

[8] = tested on: HT1080 cells; test: mPMS dose-response with WST-1c and apigenin, cell viability; type: cell-based, human; conditions: mPMS variable with 1 mM WST-1c and 10, 30 or 100 μM apigenin
Procedure: (§3) Method: A & B: HT1080 (FIG. 16A) and UM-SCC6 (FIG. 16B) cells were treated with variable concentrations of mPMS as indicated in combination with 1 mM WST-1c and 10, 30 or 100 μM apigenin for 4 hours and, then, changed to normal growth medium for another 24 hours. Cell viabilities were measured by CCK8 Kit. 1 mM WST-1 only, 0.12 mM mPMS only and 10% WST-1r were used as parallel control. AP 0: Untreated Control, AP 10: 10 μM Apigenin, AP 30: 30 μM Apigenin, AP 100: 100 μM Apigenin.

[9] = tested on: UM-SCC6 cells; test: as above; type: cell-based, human; conditions: mPMS variable with 1 mM WST-1c and 10, 30 or 100 μM apigenin
Procedure: as §3

[10] = tested on: MDA-MB-231 cells; test: WST-1r and apigenin dose-response, cell viability by CCK8; type: cell-based
Procedure: (§4) Method: UM-SCC6, MDA-MB-231, Cal27, HT1080, T294, B6-5 and A431 cells were treated with 3% or 10% of WST-1r or 10, 30, or 100 μM apigenin or combination of variable concentrations of WST-1r with apigenin in parallel with untreated control cells and DMSO control for 4 hours, then, the treatments were removed and the cells, thus, treated were changed to normal growth medium and maintained in culture for another 24 hours. DMSO was used as vehicle control. Cell viabilities were measured by CCK8 Kit and normalized to % of untreated control calls.

[11] = tested on: A431 cells; test: as above; type: cell-based
Procedure: as §4

[12] = tested on: ROS generation in UM-SCC6 cells; test: Dose response of ROS generation (CM-H2-DCFDA fluorescence); type: cell-based, human
Procedure: Method: UM-SCC6 cells were labeled with 10 μM CM-H2-DCFDA for 15 minutes and then treated with WST-1r or CCK8 at the indicated amounts in combination with variable doses of apigenin (A) or IKK Inhibitor III (B) for 4 hours. Fluorescence at Ex485/Em535 were measured for detecting ROS generation that labeled by the CM-H2-DCFDA.

[13] = tested on: UM-SCC6, Cal27 and HEKa cells; test: Modified WST-1r and Apigenin, cancer versus non-cancer cells, single agents; type: cell-based, human; conditions: 10% modified WST-1r (mPMS 20 μM, WST-1c 1 mM) or Apigenin 30 or 100 μM, 4 hours then 24 hours
Procedure: Comparison of cell responses to modified WST-1r and Apigenin combination treatment between cancer cells and non-cancer cells. UM-SCC6, Cal27 human head and neck cancer cell lines and primary cultured human […] keratinocytes (HEKa) as labeled were treated with 10% modified WST-1r (mPMS 20 μM, WST-1c 1 mM) with (WST-1r 10) or without (WST-1r 0) 10% modified WST-1r in combination with 0 (Apigenin 0), 30 (Apigenin 30) or 100 (Apigenin 100) μM Apigenin for 4 hours, then, changed to apigenin in the corresponding concentrations for another 24 hours.

[14] = tested on: UM-SCC6 cells; test: CCK8, XTT, WST-1r comparison in combination with apigenin, cell viability; type: cell-based, human; conditions: for IC50: Homo sapiens, read-out: Apigenin 1050
Procedure: Method: HT1080 and UM-SCC6 cells were treated with 10% of WST-1r, CCK8 or XTT in combination with variable doses of apigenin for 4 hours and, then changed to normal growth medium for another 24 hours. Cell viability was measured with CCK8 kit.

[15] = tested on: phosphorylated JNK in UM-SCC6 cells; test: JNK phosphorylation (FACE Kit); type: cell-based, human; conditions: 4 hours
Procedure: Method: UM-SCC6 cells were treated with WST-1r and apigenin at the indicated doses for 4 hours, and then phosphorylated JNK and total JNK were measured in parallel with FACE Kit (Qiogen). The resulting data were normalized to total cell number measured by crystal violet staining The phosphorylated JNK from each measurement were normalized to the ratio of phosphorylated JNK over total JNK values.

[16] = tested on: HT1080 cells; test: siRNA or Puc19 transfection combined with Taxel, cell viability by CCK8; type: cell-based, human; conditions: 72 hours after the treatment
Procedure: Method: HT1080 cells transfected with siRNAs that were derived from Puc19 DNA sequence and the siRNAs that targeting the corresponding genes that are the targets of the Puc19 derived siRNAs for 24 hours, then, treated with Taxel at 3, 10, 30, and 100 nM for 48 hours. After the 48 hours of Taxel treatment, cells in culture were changed to normal growth medium for 24 to 72 hours. Cell viability was monitored by CCK8 Kit every 24 hours. Data are normalized to % of untreated control cells. The siRNAs that used for this study includes siRNA#1, siRNA#2, siRHA#3, siRNA targeting TRPC6, SH3PXD2B, C6orf108, TTBK1, MAGI3, and TMEM182 as well as combination of siRNA#2+#3, and siRNA#1+#2+#3+#4+#5 (siRNAΣ1-5).

[17] = combination of 30 μM apigenin and WST-3
[18] = 4 hours, then 24 hours normal medium, combination 3% WST-1r with 100 μM apigenin or 10% WST-1r with 30 μM apigenin

SMILES: COc1cc(-c2ccc(-n3nc(-c4ccc(C(=O)N(CCS(=O)(=O)[O-])CCS(=O)(=O)[O-])cc4)n[n+]3-c3nc4ccccc4s3)c(OC)c2)ccc1-n1nc(-c2ccc(C(=O)N(CCS(=O)(=O)[O-])CCS(=O)(=O)[O-])cc2)n[n+]1-c1nc2ccccc2s1.[Na+].[Na+] [WST-5]
synergistic effect on inducing cell death in combination with apigenin [1]: no such effect
synergistic effect on inducing cell death in combination with apigenin [2]: no such effect

SMILES: O=[N+]([O-])c1ccc(-[n+]2nc(-c3ccc(S(=O)(=O)[O-])cc3S(=O)(=O)[O-])nn2-c2ccc(I)cc2)c([N+](=O)[O-])c1.[Na+] [WST-3, 2-(4-Iodophenyl)-3-(2,4-dinitrophenyl)-5-(2,4-disulfophenyl)-2H-tetrazolium, sodium salt]
cell death, single agent [3]: dose dependent but limited cell death
IC50 [3, 17]: 20 µM
WST-3 IC50 in SK-Mel-5 compared with HEKa cells ([3]; combination with 30 μM apigenin): one fold less than that from HEKa cells
cell death, single agent [4]: limited cell death
IC50 [4, 17]: 40 µM
cell death, single agent [5]: no or limited effect of cell death

SMILES: N.N.[Cl][Pt][Cl] [Cis-Platinum, cis-diamminedichloroplatinum]
IC50 of Cis-Platinum ([6]; pUC19 transfected): 1 µg/mL
IC50 of Cis-Platinum ([6]; untransfecte control): 3 µg/mL
IC50 of Cis-Platinum ([7]; pUC19 transfected): 0.3 µg/mL
IC50 of Cis-Platinum ([7]; untransfecte control): 3 µg/mL
untransfected cells at 96 hours after drug treatment [7]: recovered and grown up

IC50 ([10]; Homo sapiens, MDA-MB-231, in the presence of 10% WST-1r): 10 µM
IC50 ([11]; Homo sapiens, A-431, in the presence of 10% WST-1r): 10 µM
SMILES: O=c1cc(-c2ccc(O)cc2)oc2cc(O)cc(O)c12 [Apigenin, 4H-1-benzopyran-4-one,5,7-dihydroxy-2-(4-hydroxy-phenyl)-(9CI)]
cell death [8]: dose dependent cell death
cell death [9]: dose dependent cell death
cell death / cell survival [10, 18]: little effect on cell survival
cell death / cell survival [11, 18]: little effect on cell survival
cell death, single agent [3]: dose dependent but limited cell death
cell death, single agent [4]: limited cell death
ROS generation, agent alone ([12]; 4 hours): no effect on ROS generation
ROS generation ([12]; apigenin combined with CCK8, apigenin dose dependent): increase the ROS generation
cell viabilities, single agent treatment [13]: little effect on cell viabilities
Apigenin 1050 ([14]; CCK8+apigenin): did not reached 1050
IC50 ([14]; 10% WST-1r treated UM-SCC6 cells): 5 µM
IC50 ([14]; 10% XTT treated UM-SCC6 cells): 25 µM
Apigenin 1050 ([14]; apigenin only): did not reached 1050
cell death, single agent [5]: no or limited effect of cell death
phosphorylation of JNK (ratio phosphorylated over total JNK) [15]: dose dependent induction of phosphorylation of JNK

SMILES: CC(=O)O[C@H]1C(=O)[C@@]2(C)[C@H]([C@H](OC(=O)c3ccccc3)[C@]3(O)C[C@H](OC(=O)[C@H](O)[C@@H](NC(=O)c4ccccc4)c4ccccc4)C(C)=C1C3(C)C)[C@]1(OC(C)=O)CO[C@@H]1C[C@@H]2O [Paclitaxel]
IC50 ([7]; Homo sapiens, HT-1080, pUC19 transfected HT1080 cells, read-out: IC50 of texal): 0.02 µM
response to texal ([7]; untransfected HT1080 cells): did not show any response upto 100 nM
untransfected cells at 96 hours after drug treatment [7]: recovered and grown up
IC50 ([16]; Homo sapiens, HT-1080, Contrl (untransfected)): 0.06 µM
cell survival / cell death ([16]; Taxel 3-100 nM): dose dependent cell death

SMILES: O=c1[nH]cc(F)c(=O)[nH]1 [5-FU, 5-fluoro-2,4-(1H,3H) pyrimidinedione]
IC50 ([6]; pUC19 transfected UM-SCC6 cells): 200 µM
IC50 ([6]; untransfected UM-SCC6 cells): > 1000 µM
